Assay results taken from PubChem BioAssay AID206 (DTP/NCI, 2004).
Several values for one entry are separate records, joined by “and”; a condition that tells them apart may be missing. Equal entries are not always repeated. Results filed as inconclusive are left out.

Tested on: nude mice, HT29 intrarenal xenograft, tumor weight T/C
Test: NCI In Vivo Anticancer Drug Screen. Data for tumor model HT29;CX-1 Human Adenocarcinoma (MER+) (intrarenal inoculation) in NU/NU Swiss (nude) mice
Conditions: endpoint: mean tumor weight change, higher = larger tumour
How it was run: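 Tumor-bearing mice received test compound or vehicle, and tumor size or survival was recorded. Values are the treated-group measurement divided by the vehicle-treated control measurement.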

[1] = dose: 300.0 mg/kg/injection, schedule: Q04DX004 (sc), vehicle: Klucel (hydroxypropylcellulose) (HPC)
[2] = dose: 600.0 mg/kg/injection, schedule: Q04DX004 (sc), vehicle: Klucel (hydroxypropylcellulose) (HPC)
[3] = dose: 200.0 mg/kg/injection, schedule: Q04DX004 (sc), vehicle: Klucel (hydroxypropylcellulose) (HPC)
[4] = dose: 300.0 mg/kg/injection, schedule: Q04DX004 (sc), vehicle: saline
[5] = dose: 100.0 mg/kg/injection, schedule: Q04DX004 (sc), vehicle: saline with Tween-80
[6] = dose: 200.0 mg/kg/injection, schedule: Q04DX004 (sc), vehicle: saline with Tween-80
[7] = dose: 50.0 mg/kg/injection, schedule: Q04DX004 (sc), vehicle: saline with Tween-80

With `C[Si](C)(C)OSc1ccccc1[N+](=O)[O-]` the T/C [1] was 79 % of control, the T/C [2] was 61 % of control and the T/C (dose: 1200.0 mg/kg/injection, schedule: Q04DX004 (sc), vehicle: Klucel (hydroxypropylcellulose) (HPC)) was 107 % of control. For the same compound, the T/C (dose: 2400.0 mg/kg/injection, schedule: Q04DX004 (sc), vehicle: Klucel (hydroxypropylcellulose) (HPC)) was 93 % of control.

`O=C(Nc1ccc(N=C=S)cc1Cl)c1cc(Cl)cc(Cl)c1O` was tested, and the T/C (dose: 25.0 mg/kg/injection, schedule: Q04DX004 (sc), vehicle: Klucel (hydroxypropylcellulose) (HPC)) was 123 % of control, the T/C (dose: 50.0 mg/kg/injection, schedule: Q04DX004 (sc), vehicle: Klucel (hydroxypropylcellulose) (HPC)) was 102 % of control and the T/C [3] was 56 % of control.

For `O=c1ncccn1[C@@H]1O[C@H](CO)[C@H](O)C1O` (some centres undefined), the T/C [4] was 110 % of control, the T/C (dose: 600.0 mg/kg/injection, schedule: Q04DX004 (sc), vehicle: saline) was 87 % of control and the T/C (dose: 1200.0 mg/kg/injection, schedule: Q04DX004 (sc), vehicle: saline) was 51 % of control. For the same compound, the T/C (dose: 2400.0 mg/kg/injection, schedule: Q04DX004 (sc), vehicle: saline) was 55 % of control.

For `OCC1(CO)COC2(CCCCC2)N1`, the T/C (dose: 600.0 mg/kg/injection, schedule: Q04DX004 (sc), vehicle: suspension in saline) was 115 % of control, the T/C (dose: 1200.0 mg/kg/injection, schedule: Q04DX004 (sc), vehicle: suspension in saline) was 56 % of control and the T/C (dose: 2400.0 mg/kg/injection, schedule: Q04DX004 (sc), vehicle: suspension in saline) was 109 % of control.

With `Clc1ccc2nnnn2n1` the T/C [5] was 114 % of control and the T/C [6] was 45 % of control.

For `CC(C)=CC(=O)OC1C2C(C)=CC(=O)C(O)C2(C)C2C3(O)OCC24C(CC(=O)OC14)C(C)C3O` (centres undefined), the T/C (dose: 1.25 mg/kg/injection, schedule: Q04DX004 (sc), vehicle: distilled water + Tween-80) was 67 % of control and 76 % of control, the T/C (dose: 1.25 mg/kg/injection, schedule: Q04DX004 (sc), vehicle: saline with Tween-80) was 70 % of control and the T/C (dose: 5.0 mg/kg/injection, schedule: Q04DX004 (sc), vehicle: saline with Tween-80) was 44 % of control.

With `CC[n+]1c(-c2ccccc2)c2cc(N)ccc2c2ccc(N)cc21` the T/C (dose: 15.0 mg/kg/injection, schedule: Q04DX004 (sc), vehicle: saline) was 119 % of control, the T/C (dose: 30.0 mg/kg/injection, schedule: Q04DX004 (sc), vehicle: saline) was 66 % of control and the T/C (dose: 60.0 mg/kg/injection, schedule: Q04DX004 (sc), vehicle: saline) was 53 % of control.

For `CCN(CC)CCOC(=O)Cc1cccc2c(=O)cc(-c3ccccc3)oc12`, the T/C [7] was 70 % of control, the T/C [5] was 104 % of control and the T/C [6] was 102 % of control.

For `N#CC(=C1C=CC(=NO)C=C1)c1ccc(Cl)cc1`, the T/C [7] was 80 % of control, the T/C [5] was 90 % of control and the T/C (dose: 400.0 mg/kg/injection, schedule: Q04DX004 (sc), vehicle: saline with Tween-80) was 113 % of control.

With `CCCCCCCCCCCCCCCCS(=O)CC(O)COC(=O)c1ccc(C(=O)OCC(O)CS(=O)CCCCCCCCCCCCCCCC)cc1` (centres undefined) the T/C (dose: 50.0 mg/kg/injection, schedule: Q01DX010 (sc), vehicle: saline + Tween-80 + alcohol) was 114 % of control and the T/C (dose: 400.0 mg/kg/injection, schedule: Q01DX010 (sc), vehicle: saline + Tween-80 + alcohol) was 93 % of control and 110 % of control.

With `COc1cccc2c1C(=O)c1c(O)c3c(c(O)c1C2=O)C[C@@](O)(C(C)=O)C[C@@H]3OC1CC(N)C(O)C(C)O1` (some centres undefined) the T/C (dose: 1.0 mg/kg/injection, schedule: Q01DX010 (sc), vehicle: saline) was 159 % of control.

For `N=C(N)Sc1cc(O)ccc1O`, the T/C (dose: 75.0 mg/kg/injection, schedule: Q04DX004 (sc), vehicle: saline) was 49 % of control, the T/C (dose: 150.0 mg/kg/injection, schedule: Q04DX004 (sc), vehicle: saline) was 54 % of control and the T/C [4] was 54 % of control.

`CC(=O)OCC1OC(OC2=C(CC=C(C)C)C(=O)c3ccccc3C2=O)C(OC(C)=O)C(OC(C)=O)C1OC(C)=O` (centres undefined) was tested, and the T/C (dose: 100.0 mg/kg/injection, schedule: Q04DX004 (sc), vehicle: Klucel (hydroxypropylcellulose) (HPC)) was 159 % of control and the T/C [3] was 105 % of control.

With `O=NN(CCCl)C(=O)Oc1cc(Cl)c(Cl)cc1Cl` the T/C (dose: 150.0 mg/kg/injection, schedule: Q04DX004 (sc), vehicle: Klucel (hydroxypropylcellulose) (HPC)) was 94 % of control, the T/C [1] was 83 % of control and the T/C [2] was 92 % of control.

With `CC1(C)COCN1COC1CCCCC1` the T/C (dose: 100.0 mg/kg/injection, schedule: Q04DX004 (sc), vehicle: saline) was 34 % of control.

`CN(C)CCOc1ccc2c(c1)C/C(=C/c1ncc([N+](=O)[O-])n1C)C2=O` was tested, and the T/C (dose: 50.0 mg/kg/injection, schedule: Q01DX010 (sc), vehicle: saline with Tween-80) was 83 % of control, the T/C (dose: 100.0 mg/kg/injection, schedule: Q01DX010 (sc), vehicle: saline with Tween-80) was 78 % of control and the T/C (dose: 200.0 mg/kg/injection, schedule: Q01DX010 (sc), vehicle: saline with Tween-80) was 18 % of control. For the same compound, the T/C (dose: 400.0 mg/kg/injection, schedule: Q01DX010 (sc), vehicle: saline with Tween-80) was 93 % of control.
